Results on two compounds are retold here after patent US9469556B2, “Ballast water treatment system” (University of Strathclyde, priority 2009, dated 2016).

The experiment concerns organisms in sea water. The experiment is described as follows: ATP luminescence assay of sea samples treated with biocide dyes. The experiment is classed as cell-based. Conditions: for biocidal properties in sea water (total ATP levels): Millport sea samples, different concentrations. The procedure: Required quantities of each biocide dye were added to the tubes containing the sea sample by means of sterile pipettes in order to give the desired concentrations.
50 mL of each seawater sample was centrifuged at 4,000 rpm for 30 minutes at room temperature. The supernatant was discarded, and the pellets (which may not be visible) were resuspended in 1 mL of ATP Buffer Mix by brisk mixing with a sterile pastette. 0.1 mL of detergent solution was added to each sample. Sample tubes were then placed in a water bath at 90° C. for exactly 5 minutes to lyse seawater organisms. Alternatively the seawater organisms (from 50 mL water) are captured on a 0.22 μm filter membrane and treated with the ATP Buffer Mix, as above.
As a negative control, sterilised seawater (filtered through 0.22 μm filter and/or autoclaved) was used. Where coloured agents were added to the samples, these were also added to the negative control at the same concentration.
One aliquot (0.1 mL) of ATP Assay Mix solution was thawed and added to a sterile transparent 5 mL luminometer tube. This was swirled and allowed to stand at room temperature to allow hydrolysis of endogenous ATP and decrease background.
Immediately after 5 minutes of being at 90° C., 0.1 mL of resuspended seawater sample was added to the reaction tube, swirled briskly for 5 seconds, and immediately measured using a tube luminometer using a 4 second read time.

Molecules are shown by their SMILES.

Turning to `CN(C)c1ccc(C(=C2C=CC(=[N+](C)C)C=C2)c2ccc(N(C)C)cc2)cc1` [Gentian Violet], under “with and without incubation (FIG. 3.2)”, the “biocidal properties in sea water (total ATP levels)” value is “effective biocidal properties”. In addition, for the setting “dyes used separately (FIG. 4.1)”, the “viability of organisms in sea water (as measured by ATP presence)” value is on record as “incomplete reduction in viability”.
In the case of `O=C1OC2(c3ccccc31)c1cc(I)c(O)c(I)c1Oc1c2cc(I)c(O)c1I` [erythrosine], for the setting “overnight incubation, with and without light (60 w for 5 minutes) (FIG. 3.3)”, the “biocidal properties in sea water (total ATP levels)” value was “effective biocidal properties”.
